Experimental data published in patent US11974552B2, “Transgenic C57BL6-BTBR mouse with a humanized MHC II gene that expresses GAD65” (The University of Toledo, priority 2018, dated 2024).

Test system: pancreatic lymph nodes (PLN) CD4 and CD8 T cells of humanized T1D mice
Assay: In-vitro CFSE proliferation assay of pancreatic lymph node T cells stimulated with rGAD65
Type: cell-based
Conditions: pulse stimulation 4 ug/ml for 4 days; PLN single cell suspension of diabetic mouse; CFSE tracking
Procedure: FIG. 6C: rGAD65 induced proliferation of CD4 and CD8 cells, pancreatic lymph nodes (PLN) were isolated from humanized T1D mice and were stimulated with GAD65 (4 μg/ml) for 4 days (n=4). The proliferation of cells were tracked using CFSE and analyzed by FLOWJO V10 Beta software using fix ratio, fix CV and fix background from the un-stimulated cells.
The diabetogenic T cells are auto-antigen specific in nature. The pancreatic lymph nodes (PLN) of a diabetic mouse were isolated and the single cell suspension was stimulated with recombinant human GAD65 protein (4 ug/ml). In-vitro proliferation assay using carboxyfluorescein succinimidyl ester (CFSE) to track the T cell proliferation was performed. Pulse stimulation with human rGAD65 (4 ug/ml) for 4 days increased the CD4 and CD8 proliferation by 9-10 folds (FIG. 6C).

“human rGAD65: recombinant human Glutamic Acid Decarboxylase 65 protein used as autoantigen stimulus” was tested, and the “increase of CD4 and CD8 proliferation” value was 9-10 folds.
